Like-named read-outs stand apart in the source and are kept apart here.
Assays:
[1] = female, SCID, mouse, in vivo, iv
[2] = SCID, mouse, in vivo, iv
[3] = Dox-Hyd-C18 nanoparticles: plasma, liver and lung levels in female SCID mice; type: in vivo; details: about 1.8 mg-eq/kg IV
[4] = Dox-Hyd-C12 nanoparticles: plasma, liver and lung levels in female SCID mice; details: Dox-Hyd-C12 nanoparticle study, about 2.2 mg-eq/kg IV

| SMILES | AUC0-t [1] [ng·h/mL] | AUC0-∞ [1] [ng·h/mL] | tmax [1] [h] | tmax [2] [min] | doxorubicin from hydrolysis of prodrug in tissue [3] | time nanoparticles circulate in plasma [3] | doxorubicin from hydrolysis of prodrug in tissue [4] |
| --- | --- | --- | --- | --- | --- | --- | --- |
| Cn1c(CCCC(=O)O)nc2cc(N(CCCl)CCCl)ccc21 [Bendamustine, bendamustine] | 566 | 589 | 0083 | 4.98 |  |  |  |
| CCCCCCCCCCCCCCCCCC(=O)NN=C(CO)[C@]1(O)Cc2c(O)c3c(c(O)c2[C@@H](O[C@H]2C[C@H](N)[C@H](O)[C@H](C)O2)C1)C(=O)c1c(OC)cccc1C3=O [Dox-Hyd-C18] |  |  |  |  | detected in liver and lung tissue | up to 24 hours | detected in liver and lung tissue |

Reference: patent US11071789B2, “Pharmaceutical prodrugs and methods of their preparation and use” (CEPHALON, INC., priority 2016, dated 2021)
